According to article doi:10.1101/2020.11.18.387670v2 (biorxiv, 2020):
One block for each molecule: values may come before it.

Tests used:
α-enolase (ENO1) [1] = target: T1, α-enolase (ENO1) (Homo sapiens, UniProt P06733, K330E); assay: PKM1-coupled luminescent Kinase-Glo assay; format: biochemical
α-enolase (ENO1) [2] = target: T2, α-enolase (ENO1) (Homo sapiens, UniProt P06733); assay: PKM1-coupled luminescent Kinase-Glo assay; format: biochemical
α-enolase (ENO1) [3] = target: T2, α-enolase (ENO1); assay: SPR; format: binding
α-enolase (ENO1) [4] = target: T1, α-enolase (ENO1); assay: SPR; format: binding
PKM2 = PKM2 (Homo sapiens, UniProt P14618); assay: SPR; format: binding
TRIM28 = TRIM28 (Homo sapiens, UniProt Q13263); assay: SPR; format: binding
GAPDH = GAPDH (Homo sapiens, UniProt P04406); assay: NADH absorbance at […] nm; format: biochemical; details: activator, allosteric suggested; 1 mM NAD+, 2.88 mM G3P, 20 mM arsenate, pH 8.5
GAPDH, sequence (P04406 2-335): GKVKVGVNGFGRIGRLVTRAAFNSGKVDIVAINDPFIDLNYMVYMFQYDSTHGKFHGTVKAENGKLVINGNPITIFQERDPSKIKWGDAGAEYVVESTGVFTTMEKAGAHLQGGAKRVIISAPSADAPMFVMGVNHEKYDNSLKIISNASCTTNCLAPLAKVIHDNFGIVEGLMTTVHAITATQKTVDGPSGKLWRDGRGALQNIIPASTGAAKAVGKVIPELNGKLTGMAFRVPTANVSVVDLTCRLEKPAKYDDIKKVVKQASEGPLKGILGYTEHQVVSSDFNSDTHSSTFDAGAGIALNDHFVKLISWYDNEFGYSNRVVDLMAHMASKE

T1 sequence (P06733 whole entry K330E): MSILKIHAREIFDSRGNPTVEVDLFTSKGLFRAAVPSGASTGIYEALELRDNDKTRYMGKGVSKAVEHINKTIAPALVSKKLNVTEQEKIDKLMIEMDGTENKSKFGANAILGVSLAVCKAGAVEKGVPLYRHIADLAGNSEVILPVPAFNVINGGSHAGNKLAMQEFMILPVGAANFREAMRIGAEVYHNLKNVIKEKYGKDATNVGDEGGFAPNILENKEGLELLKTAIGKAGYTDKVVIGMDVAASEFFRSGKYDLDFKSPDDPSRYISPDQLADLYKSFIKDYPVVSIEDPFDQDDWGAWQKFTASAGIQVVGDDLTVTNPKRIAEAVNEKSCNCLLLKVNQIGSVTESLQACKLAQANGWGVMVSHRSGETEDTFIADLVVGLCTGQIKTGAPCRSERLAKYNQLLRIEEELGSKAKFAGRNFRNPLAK
T2 sequence (P06733 whole entry): as the sequence (P06733 whole entry K330E) above, with E330K counted along it
TRIM28, sequence (Q13263 whole entry): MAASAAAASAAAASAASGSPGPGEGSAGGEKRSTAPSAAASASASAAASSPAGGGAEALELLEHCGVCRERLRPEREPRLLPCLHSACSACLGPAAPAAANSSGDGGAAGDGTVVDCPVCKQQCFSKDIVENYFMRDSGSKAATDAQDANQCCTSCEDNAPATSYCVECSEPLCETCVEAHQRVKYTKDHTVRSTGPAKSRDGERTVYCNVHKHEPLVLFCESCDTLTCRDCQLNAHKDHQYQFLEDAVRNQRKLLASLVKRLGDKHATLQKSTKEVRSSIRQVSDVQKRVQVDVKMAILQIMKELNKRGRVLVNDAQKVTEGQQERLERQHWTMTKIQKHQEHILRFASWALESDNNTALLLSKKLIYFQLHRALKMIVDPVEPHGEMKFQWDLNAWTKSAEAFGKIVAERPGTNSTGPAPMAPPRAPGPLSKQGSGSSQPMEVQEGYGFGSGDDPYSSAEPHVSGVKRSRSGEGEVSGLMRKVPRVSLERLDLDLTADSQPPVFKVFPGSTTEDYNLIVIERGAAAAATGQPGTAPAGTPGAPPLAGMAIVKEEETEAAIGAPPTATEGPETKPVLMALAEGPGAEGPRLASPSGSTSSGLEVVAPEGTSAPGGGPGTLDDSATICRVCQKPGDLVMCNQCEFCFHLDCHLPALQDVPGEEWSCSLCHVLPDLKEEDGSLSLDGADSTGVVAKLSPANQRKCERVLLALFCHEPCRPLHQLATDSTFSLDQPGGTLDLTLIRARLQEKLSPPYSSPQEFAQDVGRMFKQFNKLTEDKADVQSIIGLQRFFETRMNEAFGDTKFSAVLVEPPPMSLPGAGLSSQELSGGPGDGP
PKM2, sequence (P14618 2-531): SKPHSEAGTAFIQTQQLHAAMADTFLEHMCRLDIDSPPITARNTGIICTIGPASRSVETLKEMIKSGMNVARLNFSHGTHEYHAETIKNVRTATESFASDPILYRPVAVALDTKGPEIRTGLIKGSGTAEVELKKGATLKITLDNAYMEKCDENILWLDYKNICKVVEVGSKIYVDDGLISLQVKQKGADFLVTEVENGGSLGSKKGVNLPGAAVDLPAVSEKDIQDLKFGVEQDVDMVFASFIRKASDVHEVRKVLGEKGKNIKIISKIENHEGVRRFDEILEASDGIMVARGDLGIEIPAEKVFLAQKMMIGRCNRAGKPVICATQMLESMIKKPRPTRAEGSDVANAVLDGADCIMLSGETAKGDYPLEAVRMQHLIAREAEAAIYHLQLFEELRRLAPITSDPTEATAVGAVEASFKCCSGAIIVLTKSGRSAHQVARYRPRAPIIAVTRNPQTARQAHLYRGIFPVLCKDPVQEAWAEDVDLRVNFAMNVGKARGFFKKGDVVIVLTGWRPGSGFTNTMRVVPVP

IC50 (α-enolase (ENO1) [1]): 1170 µM | IC50 (α-enolase (ENO1) [2]): 113 µM | Kd (α-enolase (ENO1) [3]): 0.0254 µM | Kd (α-enolase (ENO1) [4]): 10.3 µM
Structure (SMILES): O=CC(O)COP(=O)(O)O (racemic) [G3P]

Kd (PKM2): 0.26 µM
Structure (SMILES): O=C(O)[C@H](O)COP(=O)(O)O [3PG]

Kd (TRIM28): 0.0412 µM
Structure (SMILES): C[C@H](O)C(=O)O [lactate]

NADH absorbance at 340 nm (GAPDH): pyruvate can bind to and activate GAPDH
Structure (SMILES): CC(=O)C(=O)O [pyruvate]
